Molecules are shown by their SMILES. Active and inactive are the calls of the source. The rule behind the calls is not given here.

For the data set, the system named is CCRIS mutagenicity, Ames/micronucleus/aberration tests. The data set is described as follows: CCRIS mutagenicity studies.
[1] abbreviates: Test System: AMES SALMONELLA TYPHIMURIUM, Strain/Indicator: TA98, Metabolic Activation: NONE, Method: STANDARD PLATE.
Where [2] appears, read: Test System: AMES SALMONELLA TYPHIMURIUM, Strain/Indicator: TA98, Metabolic Activation: RAT, LIVER, S-9, AROCLOR 1254, Method: STANDARD PLATE.
[3] abbreviates: Test System: AMES SALMONELLA TYPHIMURIUM, Strain/Indicator: TA100, Metabolic Activation: NONE, Method: STANDARD PLATE.
The mark [4] stands for this setting: Test System: AMES SALMONELLA TYPHIMURIUM, Strain/Indicator: TA100, Metabolic Activation: RAT, LIVER, S-9, AROCLOR 1254, Method: STANDARD PLATE.
Setting [5] is: Test System: AMES SALMONELLA TYPHIMURIUM, Strain/Indicator: TA1537, Metabolic Activation: NONE, Method: STANDARD PLATE.
[6] abbreviates: Test System: AMES SALMONELLA TYPHIMURIUM, Strain/Indicator: TA1538, Metabolic Activation: NONE, Method: STANDARD PLATE.
Setting [7] is: Test System: AMES SALMONELLA TYPHIMURIUM, Strain/Indicator: TA1538, Metabolic Activation: RAT, LIVER, S-9, AROCLOR 1254, Method: STANDARD PLATE.
Where [8] appears, read: Test System: MOUSE LYMPHOMA, Strain/Indicator: L5178Y (TK+/TK-), Metabolic Activation: NONE, Method: SUSPENSION/PLATE.
Where [9] appears, read: Test System: AMES SALMONELLA TYPHIMURIUM, Strain/Indicator: TA100, Metabolic Activation: NONE, Method: PREINCUBATION
[10] abbreviates: Test System: AMES SALMONELLA TYPHIMURIUM, Strain/Indicator: TA1537, Metabolic Activation: RAT, LIVER, S-9, AROCLOR 1254, Method: STANDARD PLATE.
[11] abbreviates: Test System: AMES SALMONELLA TYPHIMURIUM, Strain/Indicator: TA98, Metabolic Activation: NONE, Method: PREINCUBATION

With `CCN(CC[N+](C)(C)C)c1ccc(N=Nc2ccc([N+](=O)[O-])cc2Cl)cc1`, the mutagenic call is “active; positive” (Test System: AMES SALMONELLA TYPHIMURIUM, Strain/Indicator: TA98, Metabolic Activation: HAMSTER, LIVER, S-9, AROCLOR 1254, Method: STANDARD PLATE); “active; positive” (Test System: AMES SALMONELLA TYPHIMURIUM, Strain/Indicator: TA98, Metabolic Activation: HAMSTER, LIVER, S-9, Method: PREINCUBATION (PRIVAL METHOD)); “active; positive” under setting [1]; “active; positive” under setting [2]; “active; positive” (Test System: AMES SALMONELLA TYPHIMURIUM, Strain/Indicator: TA100, Metabolic Activation: HAMSTER, LIVER, S-9, AROCLOR 1254, Method: STANDARD PLATE); “active; positive” under setting [3]. The mutagenic call is “active; positive” under setting [4]; “active; positive” under setting [5]; “active; positive” (Test System: AMES SALMONELLA TYPHIMURIUM, Strain/Indicator: TA1538, Metabolic Activation: HAMSTER, LIVER, S-9, AROCLOR 1254, Method: STANDARD PLATE); “active; positive” under setting [6]; “active; positive” under setting [7]; “active; positive” (Test System: Ames Salmonella typhimurium, Strain/Indicator: TA98, Metabolic Activation: None, Method: Preincubation). The mutagenic call runs as follows: (Test System: Ames Salmonella typhimurium, Strain/Indicator: TA100, Metabolic Activation: None, Method: Preincubation) “inactive; negative”; (Test System: Ames Salmonella typhimurium, Strain/Indicator: TA102, Metabolic Activation: None, Method: Preincubation) “inactive; negative”; (Test System: Ames Salmonella typhimurium, Strain/Indicator: TA1535, Metabolic Activation: None, Method: Preincubation) “inactive; negative”; under setting [8], “inactive; negative. reevaluation of results: negative”; (Test System: MOUSE LYMPHOMA, Strain/Indicator: L5178Y (TK+/TK-), Metabolic Activation: RAT, LIVER, S-9, AROCLOR 1254, Method: SUSPENSION/PLATE) “active; positive. reevaluation of results: positive”.

On to `c1ccc2c(c1)ccc1cc3c(ccc4ccccc43)cc12`, for which the mutagenic call reads like this: (Test System: AMES SALMONELLA TYPHIMURIUM, Strain/Indicator: TA98, Metabolic Activation: HAMSTER, LIVER, S-9, AROCLOR 1254 (5 OR 30%), Method: PREINCUBATION) “inactive; negative”; (Test System: AMES SALMONELLA TYPHIMURIUM, Strain/Indicator: TA98, Metabolic Activation: HAMSTER, LIVER, S-9, AROCLOR 1254 (10%), Method: PREINCUBATION) “active; positive”; (Test System: AMES SALMONELLA TYPHIMURIUM, Strain/Indicator: TA98, Metabolic Activation: RAT, LIVER, S-9, AROCLOR 1254 (30%), Method: PREINCUBATION) “active; positive”; under setting [2], “active; positive”; (Test System: AMES SALMONELLA TYPHIMURIUM, Strain/Indicator: TA100, Metabolic Activation: HAMSTER, LIVER, S-9, AROCLOR 1254 (5, 10 OR 30%), Method: PREINCUBATION) “active; positive”; (Test System: AMES SALMONELLA TYPHIMURIUM, Strain/Indicator: TA100, Metabolic Activation: MOUSE, LIVER, S-9, 3-METHYLCHOLANTHRENE, Method: STANDARD PLATE) “active; positive”. Further, the mutagenic call reads like this: (Test System: AMES SALMONELLA TYPHIMURIUM, Strain/Indicator: TA100, Metabolic Activation: MOUSE, LIVER, S-10, AROCLOR 1254) “active; positive”; under setting [9], “inactive; negative”; (Test System: AMES SALMONELLA TYPHIMURIUM, Strain/Indicator: TA100, Metabolic Activation: RAT, LIVER, S-9, AROCLOR 1254 (30%), Method: PREINCUBATION) “active; positive”; under setting [4], “active; positive”; under setting [10], “active; positive”; (Test System: CHINESE HAMSTER V-79, Strain/Indicator: V-79/6-THIOGUANINE, Metabolic Activation: RAT, LIVER, S-9, PHENOBARBITAL, Method: STANDARD PLATE) “active; positive”. In addition, where the note is “Test System: CHINESE HAMSTER V-79, Strain/Indicator: V-79/OUABAIN, Metabolic Activation: CELL-MEDIATED, Method: STANDARD PLATE”, the mutagenic call is “active; positive”.

For `CC(CN1CC(=O)NC(=O)C1)N1CC(=O)NC(=O)C1` (centres undefined), the mutagenic call is “inactive; negative” under setting [1]; “inactive; negative” under setting [2]; “inactive; negative” under setting [3]; “inactive; negative” under setting [4]; “inactive; negative” (Test System: AMES SALMONELLA TYPHIMURIUM, Strain/Indicator: TA1535, Metabolic Activation: NONE, Method: STANDARD PLATE); “inactive; negative” (Test System: AMES SALMONELLA TYPHIMURIUM, Strain/Indicator: TA1535, Metabolic Activation: RAT, LIVER, S-9, AROCLOR 1254, Method: STANDARD PLATE). The mutagenic call under setting [5] is “inactive; negative”; the mutagenic call under setting [10] was “inactive; negative”; the mutagenic call under setting [6] was “inactive; negative”; the mutagenic call under setting [7] is “inactive; negative”; the mutagenic call (Test System: CHINESE HAMSTER V-79, Strain/Indicator: V-79/8-AZAGUANINE, Metabolic Activation: NONE, Method: STANDARD PLATE) was “active; positive”; the mutagenic call under setting [8] was “active; positive”.

Turning to `COC1=CC(=O)OC(/C=C/c2ccccc2)C1` (centres undefined), the mutagenic call (Test System: L5178Y ( tk+/tk-), Metabolic Activation: Human, Liver, S-9, Method: Suspension/plate) is “inactive; negative”.

Regarding `NCCCCC(N)C(=O)O` (centres undefined), the mutagenic call (Test System: AMES SALMONELLA TYPHIMURIUM, Strain/Indicator: TA98, Metabolic Activation: RAT LIVER S-9, CHLOROPHENE, Method: STANDARD PLATE (COMPOUND HEATED AT 250 DEGREES CELSIUS FOR 20 MIN)) is “active; positive”.

Regarding `Cc1cccc(NO)c1`, the mutagenic call (Test System: AMES SALMONELLA TYPHIMURIUM, Strain/Indicator: TA98, Metabolic Activation: RAT, LIVER, S-9, AROCLOR 1254, Method: PREINCUBATION) was “inactive; negative” and the mutagenic call (Test System: AMES SALMONELLA TYPHIMURIUM, Strain/Indicator: TA100, Metabolic Activation: RAT, LIVER, S-9, PCB, Method: PREINCUBATION) is “active; positive”.

On to `CC(=O)O[C@H]1[C@H](OC23C=C(C)C4(CC4)C(C)(O)C2C(=O)C(C)(C)C3)O[C@H](CO)[C@@H](OC(=O)/C=C/c2ccc(O)cc2)[C@@H]1O` (some centres undefined), for which the mutagenic call is “active; positive” under setting [11] and “active; positive” under setting [9].

`CCC(C)OC(=O)C=Cc1ccc([N+](=O)[O-])o1` (centres undefined): under setting [11], the mutagenic call is “active; positive”.

As to `COc1nsc2ccc([N+](=O)[O-])cc12`, the mutagenic call under setting [3] is “active; positive”.

`c1ccc2c(c1)ccc1ccc3sccc3c12`: the mutagenic call is “active; positive” (Test System: Ames Salmonella typhimurium, Strain/Indicator: TA100, Metabolic Activation: None, Method: Plate incorporation) and “inactive; negative” (Test System: Ames Salmonella typhimurium, Strain/Indicator: TA104, Metabolic Activation: None, Method: Plate incorporation).

On to `C1=CC2=C3OC3c3cc4c(cc3C2C=C1)c1c(c2ccccc24)O1` (centres undefined), for which, under setting [3], the mutagenic call was “active; positive”.

For the molecule `O[C@H]1C=Cc2c(ccc3cccnc23)[C@@H]1O`, under setting [4], the mutagenic call was “active; positive”.

(Values after PubChem BioAssay AID1259407 (Chemical Carcinogenesis Research Information System (CCRIS), 2018).)
